Measurements reported in patent US9580390B2, “Indazole compounds as kinase inhibitors and method of treating cancer with same” (University Health Network, priority 2011, dated 2017).
pIC50: −log10 of the molar value. Where two headings read alike, the source gives them in different places.

What was measured:
ALK = target: T1, ALK (Homo sapiens, UniProt Q9UM73); assay: Panel of 270 human kinases (Millipore); assay type: biochemical
T1 construct: purchased Millipore Corporation
Experimental: (§1) The inhibitory activity of selected compounds of the invention (A335, A405, A410, A261, A300 and A363) was evaluated against a panel of 270 different human kinase enzymes by Millipore Corporation. The % Inhibition was determined by the formula: % Inhibition=100×(1−(experimental value−background value)/(high activity control−background value)).

MELK = target: T2, MELK (Homo sapiens, UniProt Q14680); assay: Panel of 270 human kinases (Millipore); assay type: biochemical
T2 construct: purchased Millipore Corporation
Experimental: as §1

JNK3 = target: T3, JNK3 (Homo sapiens, UniProt P53779); assay: Panel of 270 human kinases (Millipore); assay type: biochemical
T3 construct: purchased Millipore Corporation
Experimental: as §1

cKit (V560G) = target: T4, cKit (V560G) (Homo sapiens, UniProt P10721, V560G); assay: Panel of 270 human kinases (Millipore); assay type: biochemical
T4 construct: purchased Millipore Corporation
Experimental: as §1

MUSK = target: T5, MUSK (Homo sapiens, UniProt O15146); assay: Panel of 270 human kinases (Millipore); assay type: biochemical
T5 construct: purchased Millipore Corporation
T5 sequence (O15146 24-869): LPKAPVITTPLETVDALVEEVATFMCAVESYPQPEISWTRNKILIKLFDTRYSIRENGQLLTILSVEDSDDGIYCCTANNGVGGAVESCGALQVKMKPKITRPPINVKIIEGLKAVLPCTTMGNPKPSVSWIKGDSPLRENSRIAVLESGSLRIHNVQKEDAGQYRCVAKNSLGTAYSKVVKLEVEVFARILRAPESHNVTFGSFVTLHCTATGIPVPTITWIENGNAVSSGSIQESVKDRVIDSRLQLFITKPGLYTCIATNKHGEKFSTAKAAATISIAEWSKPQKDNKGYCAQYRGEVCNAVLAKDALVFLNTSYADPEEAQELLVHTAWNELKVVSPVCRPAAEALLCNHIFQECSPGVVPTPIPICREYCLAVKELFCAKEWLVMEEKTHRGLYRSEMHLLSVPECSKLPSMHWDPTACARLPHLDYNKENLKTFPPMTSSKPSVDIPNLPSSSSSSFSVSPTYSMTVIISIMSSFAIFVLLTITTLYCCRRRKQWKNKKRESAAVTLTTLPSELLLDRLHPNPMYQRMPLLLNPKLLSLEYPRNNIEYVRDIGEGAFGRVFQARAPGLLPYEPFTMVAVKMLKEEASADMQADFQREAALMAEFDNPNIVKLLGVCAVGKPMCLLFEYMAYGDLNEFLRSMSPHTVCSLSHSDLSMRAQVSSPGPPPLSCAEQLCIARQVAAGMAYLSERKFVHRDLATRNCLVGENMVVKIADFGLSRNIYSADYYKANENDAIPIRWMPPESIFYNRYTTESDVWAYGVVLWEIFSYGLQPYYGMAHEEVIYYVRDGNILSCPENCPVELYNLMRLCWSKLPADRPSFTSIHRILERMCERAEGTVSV
Experimental: as §1

MAPK2 = target: T6, MAPK2 (Homo sapiens, UniProt P28482); assay: Panel of 270 human kinases (Millipore); assay type: biochemical
T6 construct: purchased Millipore Corporation
Experimental: as §1

Met(Y1248C) = target: T7, Met(Y1248C) (Homo sapiens, UniProt P08581, Y1230C); assay: Panel of 270 human kinases (Millipore); assay type: biochemical
T7 construct: purchased Millipore Corporation
Experimental: as §1

Aurora-B = target: T8, Aurora-B (Homo sapiens, UniProt Q96GD4); assay: Panel of 270 human kinases (Millipore); assay type: biochemical
T8 construct: purchased Millipore Corporation
Experimental: as §1

TICs (Colon 12) = assay: Colon tumor-initiating cell growth inhibition (Alamar Blue); assay type: cell-based; conditions: 216 h; Colon 12 TICs, 9 days; read-out: Tumor Initiating Cell GI50 Range Colon 12
TICs (Ovarian 2393A) = assay: Ovarian tumor-initiating cell growth inhibition (Alamar Blue); assay type: cell-based; conditions: 144 h; Ovarian 2393A TICs, 6 days; read-out: Tumor Initiating Cell GI50 Range Ovarain 2393A
[1] = tested on: ovarian cancer cells (PA-1); assay: Cancer cell line growth inhibition (SRB assay); assay type: cell-based; conditions: Homo sapiens, PA-1; read-out: Cancer Cell Line GI50 Range PA-1
human TTK = target: T9, human TTK (Homo sapiens, UniProt P33981); assay: TTK inhibition assay (indirect ELISA); assay type: biochemical
T9 construct: amino terminal GST fusion of full length human TTK; purchased Invitrogen
T9 sequence (P33981 1-857): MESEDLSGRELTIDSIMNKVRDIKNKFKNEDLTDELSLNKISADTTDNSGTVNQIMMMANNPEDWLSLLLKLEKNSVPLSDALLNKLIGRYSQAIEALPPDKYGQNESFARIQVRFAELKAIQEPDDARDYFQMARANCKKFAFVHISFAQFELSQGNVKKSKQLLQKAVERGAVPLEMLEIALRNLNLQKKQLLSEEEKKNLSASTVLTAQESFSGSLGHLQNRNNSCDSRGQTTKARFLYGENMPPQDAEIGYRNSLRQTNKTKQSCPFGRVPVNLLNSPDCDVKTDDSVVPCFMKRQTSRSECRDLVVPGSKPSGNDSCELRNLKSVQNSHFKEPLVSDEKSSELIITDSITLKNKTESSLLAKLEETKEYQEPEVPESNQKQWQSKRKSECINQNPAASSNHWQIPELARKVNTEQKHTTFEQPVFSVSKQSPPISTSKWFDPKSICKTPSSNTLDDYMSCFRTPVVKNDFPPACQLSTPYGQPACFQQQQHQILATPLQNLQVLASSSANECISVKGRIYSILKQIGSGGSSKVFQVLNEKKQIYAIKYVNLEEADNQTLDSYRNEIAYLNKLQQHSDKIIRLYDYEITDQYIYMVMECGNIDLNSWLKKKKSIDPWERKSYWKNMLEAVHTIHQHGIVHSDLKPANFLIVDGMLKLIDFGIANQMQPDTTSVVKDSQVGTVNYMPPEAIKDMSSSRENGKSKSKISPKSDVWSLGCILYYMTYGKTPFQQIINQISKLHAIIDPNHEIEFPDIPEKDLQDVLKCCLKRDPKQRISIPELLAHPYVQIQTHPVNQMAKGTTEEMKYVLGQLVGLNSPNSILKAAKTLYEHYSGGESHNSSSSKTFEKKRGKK

[2] = tested on: colon cancer cells (HCT116); assay: Cancer cell line growth inhibition (SRB assay); assay type: cell-based; conditions: Homo sapiens, HCT-116; read-out: Cancer Cell Line GI50 Range HCT116
Breast cancer cells = assay: Cancer cell line growth inhibition (SRB assay); assay type: cell-based; conditions: Homo sapiens; MDA-MB-468; read-out: Cancer Cell Line GI50 Range MDA-MB-468

T8 sequence (Q96GD4 whole entry): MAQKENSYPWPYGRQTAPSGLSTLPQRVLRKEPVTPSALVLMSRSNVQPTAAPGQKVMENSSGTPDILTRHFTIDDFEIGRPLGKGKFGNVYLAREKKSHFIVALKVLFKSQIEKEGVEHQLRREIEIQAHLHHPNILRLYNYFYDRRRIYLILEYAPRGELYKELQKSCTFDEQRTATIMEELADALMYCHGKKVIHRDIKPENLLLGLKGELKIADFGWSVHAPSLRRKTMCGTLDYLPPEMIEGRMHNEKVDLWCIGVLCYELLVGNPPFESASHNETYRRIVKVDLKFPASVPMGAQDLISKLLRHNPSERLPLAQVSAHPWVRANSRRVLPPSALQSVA
T4 sequence (P10721 26-976 V560G): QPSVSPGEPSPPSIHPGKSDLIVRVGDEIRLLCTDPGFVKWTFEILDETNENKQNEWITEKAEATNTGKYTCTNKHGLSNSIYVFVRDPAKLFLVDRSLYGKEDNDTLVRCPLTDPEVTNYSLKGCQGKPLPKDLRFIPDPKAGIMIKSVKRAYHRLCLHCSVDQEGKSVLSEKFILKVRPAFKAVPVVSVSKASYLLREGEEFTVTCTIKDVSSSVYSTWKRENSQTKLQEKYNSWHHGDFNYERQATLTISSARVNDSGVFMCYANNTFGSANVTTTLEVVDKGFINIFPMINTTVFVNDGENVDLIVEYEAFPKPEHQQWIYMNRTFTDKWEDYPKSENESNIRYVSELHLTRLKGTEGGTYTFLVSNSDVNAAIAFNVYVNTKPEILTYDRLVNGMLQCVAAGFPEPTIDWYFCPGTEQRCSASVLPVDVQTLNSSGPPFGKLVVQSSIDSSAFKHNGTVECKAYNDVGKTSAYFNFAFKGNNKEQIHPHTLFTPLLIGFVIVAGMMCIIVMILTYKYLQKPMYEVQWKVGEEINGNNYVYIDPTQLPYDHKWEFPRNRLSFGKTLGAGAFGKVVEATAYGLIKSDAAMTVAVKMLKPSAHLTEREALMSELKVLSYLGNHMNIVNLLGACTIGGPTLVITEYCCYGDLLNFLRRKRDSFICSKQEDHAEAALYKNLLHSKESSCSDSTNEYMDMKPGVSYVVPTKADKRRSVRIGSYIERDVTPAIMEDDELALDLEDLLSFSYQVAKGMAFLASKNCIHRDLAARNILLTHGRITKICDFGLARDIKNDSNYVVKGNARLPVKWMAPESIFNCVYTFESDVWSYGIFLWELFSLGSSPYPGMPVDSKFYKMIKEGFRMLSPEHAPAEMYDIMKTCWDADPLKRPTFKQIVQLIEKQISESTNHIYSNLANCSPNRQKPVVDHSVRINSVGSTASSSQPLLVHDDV
T2 sequence (Q14680 whole entry): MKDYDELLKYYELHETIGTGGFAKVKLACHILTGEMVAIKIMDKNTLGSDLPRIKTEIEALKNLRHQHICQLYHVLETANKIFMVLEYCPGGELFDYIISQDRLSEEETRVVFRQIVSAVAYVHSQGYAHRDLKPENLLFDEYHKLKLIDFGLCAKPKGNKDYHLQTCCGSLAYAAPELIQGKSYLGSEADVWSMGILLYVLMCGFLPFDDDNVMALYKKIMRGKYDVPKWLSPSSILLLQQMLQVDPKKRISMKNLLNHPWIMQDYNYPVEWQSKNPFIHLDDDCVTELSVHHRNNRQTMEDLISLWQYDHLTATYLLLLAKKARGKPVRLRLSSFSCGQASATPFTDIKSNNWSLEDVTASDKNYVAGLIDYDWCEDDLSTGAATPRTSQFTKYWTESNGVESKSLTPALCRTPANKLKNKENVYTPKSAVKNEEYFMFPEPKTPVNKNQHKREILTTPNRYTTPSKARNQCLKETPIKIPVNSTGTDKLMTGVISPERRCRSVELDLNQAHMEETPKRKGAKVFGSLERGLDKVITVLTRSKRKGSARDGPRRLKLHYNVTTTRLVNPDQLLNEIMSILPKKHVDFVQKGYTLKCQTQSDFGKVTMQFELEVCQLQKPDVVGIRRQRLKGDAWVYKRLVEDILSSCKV
T3 sequence (P53779 whole entry): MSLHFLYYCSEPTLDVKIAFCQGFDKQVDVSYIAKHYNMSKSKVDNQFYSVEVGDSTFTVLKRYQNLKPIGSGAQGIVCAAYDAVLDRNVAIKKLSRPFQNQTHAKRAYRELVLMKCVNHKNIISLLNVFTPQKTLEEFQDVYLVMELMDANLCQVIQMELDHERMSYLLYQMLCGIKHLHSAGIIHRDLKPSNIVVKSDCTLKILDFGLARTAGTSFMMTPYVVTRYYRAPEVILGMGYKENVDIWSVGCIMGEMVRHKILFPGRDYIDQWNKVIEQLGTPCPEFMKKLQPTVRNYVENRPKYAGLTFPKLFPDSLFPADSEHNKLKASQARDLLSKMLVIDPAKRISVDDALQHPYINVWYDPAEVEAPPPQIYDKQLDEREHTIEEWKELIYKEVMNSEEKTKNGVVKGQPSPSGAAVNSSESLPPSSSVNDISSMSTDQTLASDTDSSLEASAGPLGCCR
T6 sequence (P28482 whole entry): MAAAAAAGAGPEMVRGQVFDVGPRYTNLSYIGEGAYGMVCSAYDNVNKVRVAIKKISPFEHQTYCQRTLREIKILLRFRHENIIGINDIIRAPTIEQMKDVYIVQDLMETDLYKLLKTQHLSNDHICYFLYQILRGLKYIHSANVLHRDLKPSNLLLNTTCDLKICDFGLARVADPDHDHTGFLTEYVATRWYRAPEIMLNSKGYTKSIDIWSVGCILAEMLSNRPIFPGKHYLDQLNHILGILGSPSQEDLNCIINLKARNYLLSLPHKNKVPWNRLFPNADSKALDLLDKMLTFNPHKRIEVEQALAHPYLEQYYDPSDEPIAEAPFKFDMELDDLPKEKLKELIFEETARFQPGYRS
T1 sequence (Q9UM73 19-1620): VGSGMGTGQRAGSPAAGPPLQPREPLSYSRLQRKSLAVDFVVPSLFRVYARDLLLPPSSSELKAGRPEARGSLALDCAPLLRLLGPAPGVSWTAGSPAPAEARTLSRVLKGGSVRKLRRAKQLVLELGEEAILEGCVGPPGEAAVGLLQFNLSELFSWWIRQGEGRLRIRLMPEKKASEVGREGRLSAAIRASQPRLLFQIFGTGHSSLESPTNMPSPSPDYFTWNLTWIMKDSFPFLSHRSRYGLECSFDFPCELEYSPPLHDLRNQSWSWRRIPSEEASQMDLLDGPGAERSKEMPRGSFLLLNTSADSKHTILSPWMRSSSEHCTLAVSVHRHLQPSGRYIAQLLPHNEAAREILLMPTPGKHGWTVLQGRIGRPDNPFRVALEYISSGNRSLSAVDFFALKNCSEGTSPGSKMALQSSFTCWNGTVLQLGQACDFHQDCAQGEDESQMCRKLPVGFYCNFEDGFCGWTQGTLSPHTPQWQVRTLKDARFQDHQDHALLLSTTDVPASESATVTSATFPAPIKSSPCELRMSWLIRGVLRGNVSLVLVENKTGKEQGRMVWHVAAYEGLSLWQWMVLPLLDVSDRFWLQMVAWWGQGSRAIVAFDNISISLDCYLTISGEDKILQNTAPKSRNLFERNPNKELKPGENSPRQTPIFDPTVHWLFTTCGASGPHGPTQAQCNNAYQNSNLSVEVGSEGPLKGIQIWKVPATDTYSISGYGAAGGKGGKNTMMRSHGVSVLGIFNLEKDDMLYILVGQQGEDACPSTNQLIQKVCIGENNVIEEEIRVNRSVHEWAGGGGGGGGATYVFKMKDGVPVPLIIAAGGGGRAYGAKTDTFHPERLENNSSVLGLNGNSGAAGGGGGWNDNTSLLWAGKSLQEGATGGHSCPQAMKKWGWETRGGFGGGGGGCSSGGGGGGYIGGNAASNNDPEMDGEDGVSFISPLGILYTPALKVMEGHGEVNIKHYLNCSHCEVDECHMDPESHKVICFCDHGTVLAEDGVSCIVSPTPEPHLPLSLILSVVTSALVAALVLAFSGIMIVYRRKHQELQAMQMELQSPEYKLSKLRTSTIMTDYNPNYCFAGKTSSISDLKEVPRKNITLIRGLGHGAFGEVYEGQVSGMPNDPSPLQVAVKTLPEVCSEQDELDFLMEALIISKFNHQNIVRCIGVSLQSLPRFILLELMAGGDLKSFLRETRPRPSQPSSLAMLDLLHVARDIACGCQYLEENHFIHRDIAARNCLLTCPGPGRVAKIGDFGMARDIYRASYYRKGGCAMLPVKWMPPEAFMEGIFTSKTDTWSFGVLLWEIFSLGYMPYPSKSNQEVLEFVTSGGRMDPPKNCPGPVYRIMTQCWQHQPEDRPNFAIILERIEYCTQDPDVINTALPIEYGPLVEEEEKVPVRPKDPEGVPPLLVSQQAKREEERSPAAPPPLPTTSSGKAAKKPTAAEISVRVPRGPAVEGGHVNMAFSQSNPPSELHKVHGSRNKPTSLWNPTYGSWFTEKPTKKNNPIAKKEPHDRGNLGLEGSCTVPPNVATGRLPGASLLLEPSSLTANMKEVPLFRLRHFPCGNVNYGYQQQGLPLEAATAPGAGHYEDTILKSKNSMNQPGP

inhibition at 1 µM (ALK) | inhibition at 1 µM (MELK) | inhibition at 1 µM (JNK3) | inhibition at 1 µM (cKit (V560G)) | inhibition at 1 µM (MUSK) | inhibition at 1 µM (MAPK2) | inhibition at 1 µM (Met(Y1248C)) | inhibition at 1 µM (Aurora-B) | GI50 (TICs (Colon 12)) | GI50 (TICs (Ovarian 2393A)) | GI50 [1] | pIC50 (human TTK; read-out: TTK IC50 Range) | GI50 [2] | GI50 (Breast cancer cells) | Structure (SMILES) | pIC50 (human TTK)
-3% | 95% | 81% | 86% | 96% | -8% | 88% | 92% | < 100 nM | < 100 nM | < 100 nM | > 7.00 | < 100 nM | – | O=C(N[C@H](c1ccccn1)C1CCCC1)c1ccc2[nH]nc(-c3ccc(N4CCN(C5COC5)CC4)cc3)c2c1 [Example A410, (S)-N-(cyclopentyl(pyridin-2-yl)methyl)-3-(4-(4-(oxetan-3-yl)piperazin-1-yl)phenyl)-1H-indazole-5-carboxamide] | –
2% | 92% | 81% | 65% | 94% | 11% | 44% | 94% | < 100 nM | < 100 nM | < 100 nM | > 7.00 | < 100 nM | < 100 nM | CC(C)[C@H](NC(=O)c1ccc2[nH]nc(-c3ccc(N4CCN(C5COC5)CC4)cc3)c2c1)c1ccccc1Cl [Example A405, (S)-N-(1-(2-chlorophenyl)-2-methylpropyl)-3-(4-(4-(oxetan-3-yl)piperazin-1-yl)phenyl)-1H-indazole-5-carboxamide] | –
86% | 93% | 59% | 90% | 86% | 8% | 8% | 49% | 100 to 500 nM | < 100 nM | < 100 nM | > 7.00 | < 100 nM | < 100 nM | CC1=CC2(CCN(C)CC2)Oc2ccc(-c3n[nH]c4ccc(C(=O)N[C@H](c5ccccn5)C5CCCC5)cc34)cc21 [Example A261, (S)-N-(cyclopentyl(pyridin-2-yl)methyl)-3-(1′,4-dimethylspiro[chromene-2,4′-piperidin]-6-yl)-1H-indazole-5-carboxamide] | –

Structure (SMILES) | inhibition at 1 µM (ALK) | inhibition at 1 µM (MELK) | inhibition at 1 µM (JNK3) | inhibition at 1 µM (cKit (V560G)) | inhibition at 1 µM (MUSK) | inhibition at 1 µM (MAPK2) | inhibition at 1 µM (Met(Y1248C)) | inhibition at 1 µM (Aurora-B) | GI50 (TICs (Colon 12)) | GI50 (TICs (Ovarian 2393A)) | GI50 [1] | pIC50 (human TTK; read-out: TTK IC50 Range) | GI50 [2] | GI50 (Breast cancer cells) | pIC50 (human TTK)
O=C(N[C@@H](c1ccccn1)C1CC1)c1ccc2[nH]nc(-c3ccc(N4C5CCC4CC(O)C5)cc3)c2c1 (stereo partly drawn) [Example A363, N-((R)-cyclopropyl(pyridin-2-yl)methyl)-3-(4-((1R,3R,5S)-3-hydroxy-8-azabicyclo[3.2.1]octan-8-yl)phenyl)-1H-indazole-5-carboxamide] | 6% | 80% | 90% | 48% | 53% | 90% | 23% | 75% | < 100 nM | < 100 nM | < 100 nM | – | < 100 nM | – | > 7.00
